The record followed here is patent US20170015979A1 (Instituto Tecnológico y de Estudios Superiores de Monterrey, priority 2015, published 2017).

Assay [1] concerns Pichia pastoris. Briefly: Yeast sensitivity on YPGE agar. Conditions: 10^6 cells plated. It counts as cell-based. The procedure:
(§1) Example 4. […] From a single overnight grown colony of each yeast strain, 25 mL of yeast extract-peptone-dextrose (YPD) broth were inoculated and grown for 16 hours at 30° C. and 150 rpm.

Assay [2] relates to Kluyveromyces marxianus. Briefly: Yeast sensitivity on YPGE agar. It counts as cell-based. The method, then: as §1
Assay [3] has as its system Kluyvermyces lactis. The assay can be described thus: Yeast sensitivity on YPGE agar. It counts as cell-based. The procedure: as §1
For assay [4], the system named is Saccharomyces cerevisiae ATCC 44774. Briefly: Yeast sensitivity on YPGE agar. It counts as cell-based. The method, then: as §1
In assay [5] the test system is Jalapeño hypocotyl, epicotyl and shoot tip tissues. Briefly: Sensitivity of Jalapeño explants. Format: cell-based. Conditions: 200 μg/mL; initially evaluated after 15 days.
The test system of assay [6] is N. benthamiana leaf explants. Briefly: Killing curve for tobacco leaf explants. It counts as cell-based. Particulars: for explants exhibiting necrosis: 200 μg/mL, after 7 days, MS solid medium; for shoot induction observed (share of plates): after 30 days. The text has this:
FIG. 6. Doxycycline killing curve for N. benthamiana leaf explants.

For assay [7], the system named is C. reinhardtii strain CC-849.
Method: Glass bead transformation C. reinhardtii strain CC-849 was transformed with supercoiled plasmid DNA of Atetx, Btetx, pKS-aphVIII or pSP124S (Table 4) by the glass bead method. Briefly, the algae were grown at 25° C. with a 18/6 (light/dark) photoperiod in TAP media to mid-log phase (1-2×10^6 cells/mL), the cells were harvested by centrifugation 5 min. at 5000 g, the growth medium was removed and fresh TAP was added to achieve a cell concentration of 2×10^8 cells/mL. 300 μL of the cell suspension were placed in a 1.5 mL centrifuge tube containing 0.3 g of sterile 0.4-0.6 mm diameter glass beads (Sigma, St. Louis, Mo.) and 1×10^−12 mols of the desired plasmid DNA. The cell/DNA/glass bead suspensions were vortexed 15 s at maximum power in a VWR mini vortex. The cells were transferred to a glass tube with 5 mL of fresh TAP media and incubated at 25° C. overnight with a 8/6 (light/dark) photoperiod. After 14 hours the cells were concentrated by centrifugation at 5,000 g for 15 minutes and resuspended in TAP media to yield either 3×10^7 cells/mL of pKS-aphVIII and pSP124S transformants and 2.5×10^6, 5×10^6, 1×10^7 or 3×10^7 cells/mL for tetx transformants. […] When colonies appeared, they were streaked on to selective TAP agar plates.
C. reinhardtii strain CC-849 was transformed with supercoiled plasmid DNA of AtetX and BtetX, by the glass bead method. […]
Where [8] appears, read: 10^5 cells plated, 2 days of incubation.

“And” between values parts separate entries of the source, which are not always exact repeats. Equal entries are not always repeated. Where two headings read alike, the source gives them in different places.

On to `C[C@H]1c2cccc(O)c2C(=O)C2=C(O)[C@]3(O)C(=O)C(C(N)=O)=C(O)[C@@H](N(C)C)[C@@H]3[C@@H](O)[C@@H]21` [doxycycline], for which the “concentration at which growth was inhibited” value was 1000 µg/mL in assay [1]; 675 µg/mL and 1000 µg/mL in assay [2] (10^6 cells plated); 1000 µg/mL in assay [2] (10^7 cells plated); 675 µg/mL and 1000 µg/mL in assay [3] (10^6 cells plated); 1000 µg/mL in assay [3] (10^7 cells plated); 1000 µg/mL in assay [4] (10^5 cells plated). Also, the “concentration at which growth was inhibited” value in assay [4] (10^7 cells plated) is 1000 µg/mL. The explants exhibiting necrosis in assay [5] and in assay [6] was 100% throughout.
Turning to `CN(C)[C@@H]1C(O)=C(C(N)=O)C(=O)[C@@]2(O)C(O)=C3C(=O)c4c(O)cccc4[C@@](C)(O)[C@H]3C[C@@H]12` [tetracycline, Tetracycline], the “concentration at which growth was inhibited” value in assay [2] (setting [8]) was 350 to 1000 µg/mL; in assay [2] (10^6 cells plated), 1000 µg/mL; in assay [3] (setting [8]), 750 µg/mL and 1000 µg/mL; in assay [4] (2 days of incubation, cell number not clearly stated) it was 500 µg/mL and 750 µg/mL and 1000 µg/mL. For the same molecule, the explants exhibiting necrosis in assay [5] and in assay [6] was 100% throughout. In addition, the “decrease of number of positive colonies compared to 15 μg/mL” value in assay [7] (tetracycline 25 μg/mL for selection of primary transformants) and in assay [7] (tetracycline 50 μg/mL for selection of primary transformants) was “approximately 75%” in each case. The “shoot induction observed (share of plates)” value in assay [6] (15 μg/mL) and in assay [6] (25 μg/mL) was 50% each time.
